Experimental data published in article PMC3397156 (Chembiochem, 2010).

Target: T1, PatD (Prochloron didemni, UniProt Q52QI6)
T1 sequence (Q52QI6 1-784): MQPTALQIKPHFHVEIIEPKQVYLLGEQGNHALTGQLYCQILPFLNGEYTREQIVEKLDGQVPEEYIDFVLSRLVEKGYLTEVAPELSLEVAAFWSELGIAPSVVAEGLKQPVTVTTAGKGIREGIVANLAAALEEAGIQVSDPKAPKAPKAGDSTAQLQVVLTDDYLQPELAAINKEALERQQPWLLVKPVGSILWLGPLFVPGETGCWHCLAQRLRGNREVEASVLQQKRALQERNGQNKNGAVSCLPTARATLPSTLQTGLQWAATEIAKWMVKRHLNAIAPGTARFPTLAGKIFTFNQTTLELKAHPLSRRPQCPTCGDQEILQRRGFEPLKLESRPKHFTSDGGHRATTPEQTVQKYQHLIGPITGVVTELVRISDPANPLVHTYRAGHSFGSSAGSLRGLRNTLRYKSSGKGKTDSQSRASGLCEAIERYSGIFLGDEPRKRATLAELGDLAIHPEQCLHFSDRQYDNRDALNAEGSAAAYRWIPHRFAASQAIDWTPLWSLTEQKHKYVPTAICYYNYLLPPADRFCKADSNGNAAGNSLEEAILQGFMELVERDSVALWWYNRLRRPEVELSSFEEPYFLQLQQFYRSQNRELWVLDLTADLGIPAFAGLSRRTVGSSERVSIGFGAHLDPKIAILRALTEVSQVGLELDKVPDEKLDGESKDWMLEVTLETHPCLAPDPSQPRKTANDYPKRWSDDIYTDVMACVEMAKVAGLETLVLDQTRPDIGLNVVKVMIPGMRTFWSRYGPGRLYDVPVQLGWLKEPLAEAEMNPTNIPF
Details: ATP 100 μM, TruE2 2 μM, PatD 0.6 μM, MgCl2, DTT, 30 min

SMILES: Nc1ncnc2c1ncn2[C@@H]1O[C@H](COP(=O)(O)OP(=O)(O)OP(=O)(O)O)[C@@H](O)[C@H]1O [ATP]
- HPLC of ATP hydrolysis to ADP: ATP was shown to be hydrolyzed to ADP
